Read-outs that look alike come from different tables or passages of the source.
What was measured:
[1] = biological target: T1, S. flava Or42a3 (Scaptomyza flava, UniProt Z9ZJ76RJY6); assay: single sensillum recording, at1 empty neuron; type: cell-based
T1 construct: full coding region (UTRs removed) in UAST-attB, attP40 site; D. melanogaster at1 OSNs (Or67d null), host Orco; with Odorant receptor coreceptor (Drosophila melanogaster, endogenous in host neuron)
T1 sequence (Z9ZJ76RJY6 1-407): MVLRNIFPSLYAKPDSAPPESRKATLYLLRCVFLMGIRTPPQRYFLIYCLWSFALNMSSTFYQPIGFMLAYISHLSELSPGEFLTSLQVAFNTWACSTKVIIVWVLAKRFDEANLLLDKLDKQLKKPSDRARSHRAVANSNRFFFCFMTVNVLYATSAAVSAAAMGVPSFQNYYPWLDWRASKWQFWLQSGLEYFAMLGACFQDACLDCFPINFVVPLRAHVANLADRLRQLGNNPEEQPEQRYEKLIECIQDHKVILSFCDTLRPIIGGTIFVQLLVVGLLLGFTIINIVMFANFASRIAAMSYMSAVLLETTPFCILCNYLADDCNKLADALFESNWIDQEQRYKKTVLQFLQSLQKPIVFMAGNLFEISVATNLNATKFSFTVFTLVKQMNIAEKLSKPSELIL
T1 sequence (Q9VNB5 1-486 partner): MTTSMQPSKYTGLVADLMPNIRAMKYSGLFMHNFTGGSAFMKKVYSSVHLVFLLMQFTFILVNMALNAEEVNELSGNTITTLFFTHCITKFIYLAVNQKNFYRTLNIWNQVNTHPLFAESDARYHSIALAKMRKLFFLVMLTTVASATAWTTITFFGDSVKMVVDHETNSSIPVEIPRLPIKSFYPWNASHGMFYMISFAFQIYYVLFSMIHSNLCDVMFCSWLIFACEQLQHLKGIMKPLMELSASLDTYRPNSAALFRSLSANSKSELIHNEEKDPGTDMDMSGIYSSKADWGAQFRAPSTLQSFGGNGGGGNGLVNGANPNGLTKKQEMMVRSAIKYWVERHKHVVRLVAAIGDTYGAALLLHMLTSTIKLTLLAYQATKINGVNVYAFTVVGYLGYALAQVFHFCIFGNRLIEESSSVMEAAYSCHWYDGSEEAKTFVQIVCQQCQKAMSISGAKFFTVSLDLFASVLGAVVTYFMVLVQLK

[2] = biological target: T2, S. pallida Or42a2 (Scaptomyza pallida, UniProt Z9QWX1R862); assay: single sensillum recording, at1 empty neuron; type: cell-based; details: bound given for three odorants together
T2 construct: full coding region in UAST-attB, attP40 site; D. melanogaster at1 OSNs (Or67d null), host Orco; with Odorant receptor coreceptor (Drosophila melanogaster, endogenous in host neuron)
T2 sequence (Z9QWX1R862 1-406): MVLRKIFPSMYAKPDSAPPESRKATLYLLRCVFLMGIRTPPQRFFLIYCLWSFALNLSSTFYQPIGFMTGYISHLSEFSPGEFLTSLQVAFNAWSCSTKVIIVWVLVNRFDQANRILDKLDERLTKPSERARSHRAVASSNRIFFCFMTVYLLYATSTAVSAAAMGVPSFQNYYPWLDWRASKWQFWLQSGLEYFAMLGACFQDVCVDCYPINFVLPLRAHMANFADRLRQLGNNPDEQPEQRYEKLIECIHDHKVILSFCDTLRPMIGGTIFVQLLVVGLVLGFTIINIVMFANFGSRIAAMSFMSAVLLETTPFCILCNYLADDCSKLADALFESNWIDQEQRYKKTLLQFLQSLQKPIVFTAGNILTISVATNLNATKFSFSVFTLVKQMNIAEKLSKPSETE
T2 sequence (Q9VNB5 1-486 partner): T1 sequence (Q9VNB5 1-486 partner)

[3] = biological target: T3, D. melanogaster Or42a (Drosophila melanogaster, UniProt Q9V9I2); assay: single sensillum recording, at1 empty neuron; type: cell-based; details: bound given for three odorants together
T3 construct: full length UAS transgene in D. melanogaster at1 OSNs (Or67d-Gal4 null background), endogenous Orco; EC50 from native pb1a OSNs; with Odorant receptor coreceptor (Drosophila melanogaster)
T3 sequence (Q9V9I2 1-406): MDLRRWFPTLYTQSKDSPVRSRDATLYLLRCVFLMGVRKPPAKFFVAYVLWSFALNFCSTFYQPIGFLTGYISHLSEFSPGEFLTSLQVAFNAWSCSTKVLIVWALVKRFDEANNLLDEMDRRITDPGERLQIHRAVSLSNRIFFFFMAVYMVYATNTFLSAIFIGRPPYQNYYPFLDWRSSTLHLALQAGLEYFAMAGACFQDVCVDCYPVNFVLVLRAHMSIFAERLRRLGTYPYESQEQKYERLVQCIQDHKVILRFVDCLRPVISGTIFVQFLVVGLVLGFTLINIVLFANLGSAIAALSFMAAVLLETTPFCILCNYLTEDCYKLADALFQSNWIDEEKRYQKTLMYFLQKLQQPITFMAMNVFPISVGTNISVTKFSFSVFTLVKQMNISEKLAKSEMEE
T3 sequence (Q9VNB5 1-486 partner): T1 sequence (Q9VNB5 1-486 partner)

[4] = biological target: T4, S. flava Or42a2 (Scaptomyza flava, UniProt Z9B9G2NIU8); assay: single sensillum recording, at1 empty neuron; type: cell-based; details: volatile stimulus 1:100 vol/vol in mineral oil
T4 construct: full coding region (UTRs removed) in UAST-attB, attP40 site; D. melanogaster at1 OSNs (Or67d null), host Orco; with Odorant receptor coreceptor (Drosophila melanogaster, endogenous in host neuron)
T4 sequence (Z9B9G2NIU8 1-404): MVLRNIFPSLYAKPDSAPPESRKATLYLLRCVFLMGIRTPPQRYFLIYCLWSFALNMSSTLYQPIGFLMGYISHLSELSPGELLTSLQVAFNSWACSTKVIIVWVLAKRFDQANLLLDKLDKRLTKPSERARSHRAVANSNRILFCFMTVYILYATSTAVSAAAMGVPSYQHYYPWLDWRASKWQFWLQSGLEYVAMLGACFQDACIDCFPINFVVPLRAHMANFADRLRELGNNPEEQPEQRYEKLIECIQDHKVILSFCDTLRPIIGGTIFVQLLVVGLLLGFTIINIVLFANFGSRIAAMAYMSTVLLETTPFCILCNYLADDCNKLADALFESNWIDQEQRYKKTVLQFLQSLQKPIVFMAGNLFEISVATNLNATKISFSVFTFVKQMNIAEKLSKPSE
T4 sequence (Q9VNB5 1-486 partner): T1 sequence (Q9VNB5 1-486 partner)

[5] = biological target: T5, S. flava Or42a4 (Scaptomyza flava, UniProt Z9LG74I6Y6); assay: single sensillum recording, at1 empty neuron; type: cell-based
T5 construct: full coding region (UTRs removed) in UAST-attB, attP40 site; D. melanogaster at1 OSNs (Or67d null), host Orco; with Odorant receptor coreceptor (Drosophila melanogaster, endogenous in host neuron)
T5 sequence (Z9LG74I6Y6 1-404): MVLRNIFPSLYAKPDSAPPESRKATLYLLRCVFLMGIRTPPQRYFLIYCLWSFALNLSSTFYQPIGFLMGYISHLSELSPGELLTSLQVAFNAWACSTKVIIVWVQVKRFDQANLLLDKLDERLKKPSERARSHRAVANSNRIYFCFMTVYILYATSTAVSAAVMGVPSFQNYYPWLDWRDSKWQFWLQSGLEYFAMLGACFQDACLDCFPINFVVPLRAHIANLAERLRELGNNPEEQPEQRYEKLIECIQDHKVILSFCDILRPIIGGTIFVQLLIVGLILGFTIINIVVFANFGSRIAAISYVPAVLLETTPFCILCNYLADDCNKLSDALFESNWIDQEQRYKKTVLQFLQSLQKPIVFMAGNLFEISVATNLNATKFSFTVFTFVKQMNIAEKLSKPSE
T5 sequence (Q9VNB5 1-486 partner): T1 sequence (Q9VNB5 1-486 partner)

[6] = system: S. flava Or42a3; details: heterozygous UAS transgene, Fig. 8 legend prints S301P
[7] = volatile stimulus 1:100 vol/vol in mineral oil
[8] = volatile stimulus 1:100 vol/vol in DMSO

Structure (SMILES)	spikes/s [1, 7]	spikes/s [2, 7]	spikes/s [3, 7]	spikes/s [5, 7]	other results
C=CCN=C=S [AITC, allyl isothiocyanate]	S. flava Or42a3 or S. flava Or42a4 were also very sensitive to AITC and trans-2-hexenal	> 96 spikes/s	> 79 spikes/s	S. flava Or42a3 or S. flava Or42a4 were also very sensitive to AITC and trans-2-hexenal	spikes/s [4]: S. flava Or42a2 was only activated by AITC
CCCCN=C=S [BITC, butyl ITC]	–	–	–	–	spikes/s [6, 7]: The A181D S307P variant and the two S. flava paralogs showed similar moderate responses to BITC
CCC1CCC(=O)O1 (stereo not drawn) [γ-hexalactone]	–	–	–	–	spikes/s [1, 8]: S. flava Or42a3 showed a moderate response to γ-hexalactone; spikes/s [6, 8]: at1 population responses to BITC (white bars) and to γ-hexalactone (gray bars); spikes/s [2, 8]: > 96 spikes/s; spikes/s [3, 8]: > 79 spikes/s; spikes/s [5, 8]: < 10 spikes/s
CCC/C=C/C=O [trans-2-hexenal]	S. flava Or42a3 or S. flava Or42a4 were also very sensitive to AITC and trans-2-hexenal	> 96 spikes/s	> 79 spikes/s	S. flava Or42a3 or S. flava Or42a4 were also very sensitive to AITC and trans-2-hexenal	–
